{"source": "patent US12415776B2", "about": "“Lipid nanoparticle compositions for delivering circular polynucleotides” (Orna Therapeutics, Inc., priority 2021, dated 2025)", "key": {"[1]": {"test_system": "splenic immune cells (T cells, myeloid cells, B cells, NK cells)", "assay": "mOX40L expression in splenic immune cells after IV LNP-circular RNA (flow cytometry)", "type": "in vivo, C57BL/6 mice", "conditions": "1 mg/kg intravenously, 24 hours, IL:P 5.7, 50:10:38.5:1.5", "procedure": "The ionizable lipid:helper lipid:cholesterol:PEG-lipid molar ratio of these LNPs was 50:10:38.5:1.5. Dialysis of the LNPs were performed using PBS. C57BL/6 female mice (6-8 weeks, n=4) were dosed at either LNP comprising Lipid 1 of Table […] or the Lipid 15 of Table 10f at 1 mg/kg intravenously."}, "splenic T cells": {"test_system": "splenic T cells", "assay": "mOX40L expression in splenic T cells after IV LNP-circular RNA", "type": "in vivo, C57BL/6 mice", "conditions": "1 mg/kg intravenously, 24 hours", "procedure": "The ionizable lipid:helper lipid:cholesterol:PEG-lipid molar ratio of these LNPs was 50:10:38.5:1.5. C57BL/6 female mice (6-8 weeks, n=4) were dosed at 1 mg/kg intravenously. At 24 hours, the spleen from the mice were collected for flow cytometry analysis, tested for weight loss and measured for serum alanine aminotransferase (ALT) after blood collection. mOX40L expression was measured in splenic T cells."}}, "data": [{"smiles": "CCCCCCCCCCCCC(O)CN(CCCO)CCCCCCCC(=O)OC(CCCCCCCC)CCCCCCCC", "note": "(centres unmarked) [Lipid 1 of Table 10e]", "values": [{"measurement": "mOX40L transfection in splenic immune cells", "setting": "[1]", "result": "comparable or higher levels of mOX40L transfection"}, {"measurement": "mOX40L expression in splenic T cells", "setting": "splenic T cells", "result": "resulted in expression of mOX40L in splenic T cells"}]}]}
